Reference: US20170283440A1, “CARM1 INHIBITORS AND USES THEREOF” (Epizyme, Inc., priority 2014, published 2017)

What was measured:
Human CARM1 (PRMT4) = target: T1, Human CARM1 (PRMT4) (Homo sapiens, UniProt Q86X55); assay: CARM1 enzyme assay on peptide substrate (3H-SAM Flashplate); format: biochemical; conditions: CARM1 0.25 nM, 3H-SAM 30 nM, peptide 250 nM; read-out: Biochem IC50
T1 construct: Flag-CARM1-His was eluted with 200 ug/ml FLAG peptide in buffer A; made in house; host or cells: HEK 293F cells infected with recombinant baculovirus (pFastBacMam)
From the text: S-adenosylmethionine (SAM), S-adenosylhomocysteine (SAH), bicine, Tween20, dimethylsulfoxide (DMSO), bovine skin gelatin (BSG), sodium butyrate and Tris(2-carboxyethyl)phosphine hydrochloride solution (TCEP) were purchased from Sigma-Aldrich at the highest level of purity possible. ^3H-SAM was purchase from American Radiolabeled Chemicals with a specific activity of 80 Ci/mmol. 384-well streptavidin Flashplates were purchased from PerkinElmer.
Peptide representative of human histone H3 residues 16-30 was synthesized with an N-terminal linker-affinity tag motif and a C-terminal amide cap by 21st Century Biochemicals. The peptide was purified by high-performance liquid chromatography (HPLC) to greater than 95% purity and confirmed by liquid chromatography mass spectrometry (LC-MS). The sequence was Biot-Ahx-[…]-amide and contained a monomethylated arginine at position 26 (SEQ ID NO.:1).
Human CARM1 (PRMT4) (NM_199141.1) transcript clone was amplified from an HEK 293 cDNA library, incorporating a flanking 5′ sequence encoding a FLAG tag ([…]) (SEQ ID NO.:2) fused directly to Ala 2 of CARM1 and 3′ sequence encoding a hexa His sequence ([…]) (SEQ ID NO.:3) fused directly to Ser 608. The gene sequence encoding isoform1 containing a deletion of amino acids 539-561 was amplified subsequently and subcloned into pFastBacMam (Viva Biotech).
Recombinant baculovirus were generated according to Bac-to-Bac kit instructions (Life Technologies). Protein over-expression was accomplished by infecting exponentially growing HEK 293F cell culture at 1.3×10^6 cell/ml with virus (MOI=10) in the presence of 8 mM sodium butyrate. Infections were carried out at 37° C. for 48 hours, harvested by centrifugation, and stored at −80° C. for purification.
Column was washed with 500 mM NaCl in buffer A and Flag-CARM1-His was eluted with 200 ug/ml FLAG peptide in buffer A. Pooled fractions were dialyzed in 20 mM Tris, 150 mM NaCl, 5% glycerol and 1 mM DTT, pH 7.8. The purity of recovered protein was 94.
The assays were all performed in a buffer consisting of 20 mM Bicine (pH=7.6), 1 mM TCEP, 0.005% BSG, and 0.002% Tween 20, prepared on the day of use. Compounds in 100% DMSO (1 ul) were spotted into a polypropylene 384-well V-bottom plates (Greiner) using a Platemate Plus outfitted with a 384-channel head (Thermo Scientific). DMSO (1 ul) was added to Columns 11, 12, 23, 24, rows A-H for the maximum signal control and 1 ul of SAH, a known product and inhibitor of CARM1, was added to columns 11, 12, 23, 24, rows I—P for the minimum signal control. A cocktail (40 ul) containing the CARM1 enzyme was added by Multidrop Combi (Thermo-Fisher). The compounds were allowed to incubate with CARM1 for 30 min at room temperature, then a cocktail (10 ul) containing ^3H-SAM and peptide was added to initiate the reaction (final volume=51 ul). The final concentrations of the components were as follows: CARM1 was 0.25 nM, ^3H-SAM was 30 nM, peptide was 250 nM, SAH in the minimum signal control wells was 1 mM, and the DMSO concentration was 2%. The assays were stopped by the addition of non-radiolabeled SAM (10 ul) to a final concentration of 300 uM, which dilutes the ^3H-SAM to a level where its incorporation into the peptide substrate is no longer detectable. 50 ul of the reaction in the 384-well polypropylene plate was then transferred to a 384-well Flashplate and the biotinylated peptides were allowed to bind to the streptavidin surface for at least 1 hour before being washed once with 0.1% Tween20 in a Biotek ELx405 plate washer. The plates were then read in a PerkinElmer TopCount plate reader to measure the quantity of ^3H-labeled peptide bound to the Flashplate surface, measured as disintegrations per minute (dpm) or alternatively, referred to as counts per minute (cpm).
where dpm=disintegrations per minute, cmpd=signal in assay well, and min and max are the respective minimum and maximum signal controls. […]

[1] = tested on: asymmetric di-methyl PABP1 in RKO cells; assay: RKO methylation assay (In Cell Western for asymmetric di-methyl PABP1); format: cell-based; conditions: Homo sapiens, 48 hours incubation, read-out: Cellular IC50
Procedure, shortened: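 RKO cells treated 48 h at 37 °C, then fixed, methanol-permeabilized and probed for asymmetric di-methyl PABP1 (16 h, 4 °C) with DRAQ5 counterstain; 800/700 nm intensity ratio read.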

T1 sequence (Q86X55 other isoform, or with tags, fused parts or gaps): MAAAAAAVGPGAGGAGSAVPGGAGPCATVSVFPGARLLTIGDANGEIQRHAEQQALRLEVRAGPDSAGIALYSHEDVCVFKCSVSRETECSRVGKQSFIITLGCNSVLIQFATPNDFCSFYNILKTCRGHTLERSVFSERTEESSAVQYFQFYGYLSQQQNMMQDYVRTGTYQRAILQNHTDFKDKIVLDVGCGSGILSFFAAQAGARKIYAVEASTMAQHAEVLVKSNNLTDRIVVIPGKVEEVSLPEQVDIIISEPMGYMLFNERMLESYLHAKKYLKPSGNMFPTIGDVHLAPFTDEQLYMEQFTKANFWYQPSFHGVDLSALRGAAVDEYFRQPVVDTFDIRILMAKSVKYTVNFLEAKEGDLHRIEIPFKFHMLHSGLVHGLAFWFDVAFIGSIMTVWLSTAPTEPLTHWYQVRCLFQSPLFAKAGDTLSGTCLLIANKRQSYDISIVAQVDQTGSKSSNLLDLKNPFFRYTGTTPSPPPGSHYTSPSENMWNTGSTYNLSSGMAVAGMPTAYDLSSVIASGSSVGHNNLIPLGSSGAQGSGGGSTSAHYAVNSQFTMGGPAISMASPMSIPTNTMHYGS

SMILES | IC50 (Human CARM1 (PRMT4)) | IC50 [1]
NCC(O)COc1cccc(-c2nc(NCc3ccncc3)c3cnn(C4CC4)c3n2)c1 (stereo not drawn) [Example 12-5] | 0.1 to 1 µM | > 20 µM
CNCC(O)COc1cccc(-c2cc(N(C)CCOC)n3ncc(C(C)C)c3n2)c1 (stereo not drawn) [Example 12-6] | < 0.1 µM | > 20 µM
CC(C)(C)c1cnn2c(NC3CCOCC3)cc(-c3cccc(OCC(O)CN)c3)nc12 (stereo not drawn) [Example 12-8] | < 0.1 µM | > 20 µM
CNCC(O)COc1cc(Cl)cc(-c2cc(N3C[C@H]4CC[C@@H](C3)O4)n3ncc(C(C)C)c3n2)c1 (stereo partly drawn) [Example 12-9] | 0.1 to 1 µM | > 20 µM
CNCC(O)COc1cc(NC)cc(-c2cc(NC3CCOCC3)c3cnn(C(C)C)c3n2)c1 (stereo not drawn) [Example 13-4] | < 0.1 µM | 10 to 20 µM
NCC(O)COc1cccc(-c2nc(NCc3ccccn3)c3cnn(C4CC4)c3n2)c1 (stereo not drawn) [Example 13-5] | 0.1 to 1 µM | > 20 µM
CNCC(O)COc1cccc(-c2cc(N(C)[C@@H]3CCOC3)n3ncc(C(C)C)c3n2)c1 (stereo partly drawn) [Example 13-6] | < 0.1 µM | > 20 µM
COc1cc(OCC(O)CN)cc(-c2cc(N(C3CCOCC3)C3CC3)n3ncc(C(C)C)c3n2)c1 (stereo not drawn) [Example 13-8] | 0.1 to 1 µM | > 20 µM
CC(C)n1ncc2c(N3CCOCC3)cc(-c3cccc(CCC(O)CN)c3)nc21 (stereo not drawn) [Example 13-9] | 0.1 to 1 µM | > 20 µM
CNCC(O)COc1cc(OC)cc(-c2cc(NC3CCOCC3)c3cnn(C(C)C)c3n2)c1 (stereo not drawn) [Example 14-4] | < 0.1 µM | > 20 µM
Cn1ccc(CNc2nc(-c3cccc(OCC(O)CN)c3)nc3c2cnn3C2CC2)n1 (stereo not drawn) [Example 14-5] | 0.1 to 1 µM | > 20 µM
CCN(c1cc(-c2cc(OC)cc(OCC(O)CN)c2)nc2c(C(C)C)cnn12)C1CCOCC1 (stereo not drawn) [Example 14-8] | < 0.1 µM | > 20 µM
CNCC(O)COc1cccc(-c2nc(NCc3cccc4ccnn34)c3cnn(C4CC4)c3n2)c1 (stereo not drawn) [Example 14-9] | 0.1 to 1 µM | > 20 µM
Cc1cc(CNc2nc(-c3cccc(OCC(O)CN)c3)nc3c2cnn3C2CC2)no1 (stereo not drawn) [Example 15-5] | 0.1 to 1 µM | > 20 µM
C#Cc1cc(OCC(O)CNC)cc(-c2cc(N3CCOCC3)n3ncc(C(C)C)c3n2)c1 (stereo not drawn) [Example 15-6] | < 0.1 µM | > 20 µM
CC(C)(C)c1cnn2c(NC3CCOCC3)cc(-c3cc(Cl)cc(OCC(O)CN)c3)nc12 (stereo not drawn) [Example 15-8] | 0.1 to 1 µM | > 20 µM
CNCC(O)COc1cc(OC)cc(-c2cc(N3[C@@H]4CC[C@@H]3COC4)c3cnn(C(C)C)c3n2)c1 (stereo partly drawn) [Example 17-4] | < 0.1 µM | 10 to 20 µM
NCC(O)COc1cccc(-c2nc(N3C4CCC3COC4)c3cnn(C4CC4)c3n2)c1 (stereo not drawn) [Example 17-5] | < 0.1 µM | > 20 µM

Now from value to compound:

IC50 (Human CARM1 (PRMT4)) | IC50 [1] | SMILES
< 0.1 µM | > 20 µM | CNCC(O)COc1cc(-c2cc(NC3CCOCC3)c3cnn(C(C)C)c3n2)cc(C2CC2)c1 (stereo not drawn) [Example 16-4]
< 0.1 µM | > 20 µM | NCC(O)COc1cccc(-c2nc(N3CC4CCC(C3)O4)c3cnn(C4CC4)c3n2)c1 (stereo not drawn) [Example 16-5]
0.1 to 1 µM | > 20 µM | C=Cc1cc(OCC(O)CNC)cc(-c2cc(N3CCOCC3)n3ncc(C(C)C)c3n2)c1 (stereo not drawn) [Example 17-6]
< 0.1 µM | 10 to 20 µM | CNCC(O)COc1cc(OC)cc(-c2cc(N3CCOCC3)n3ncc(C(=O)OC)c3n2)c1 (stereo not drawn) [Example 17-8]
0.1 to 1 µM | > 20 µM | CNCC(O)COc1cccc(-c2nc(NCc3cccnc3)c3cnn(C4CC4)c3n2)c1 (stereo not drawn) [Example 17-9]
< 0.1 µM | > 20 µM | NCC(O)COc1cccc(-c2nc(NCc3nccs3)c3cnn(C4CC4)c3n2)c1 (stereo not drawn) [Example 18-5]
< 0.1 µM | 5 to 10 µM | CNCC(O)COc1cc(NC)cc(-c2cc(N(C)C3CCOCC3)c3cnn(C(C)C)c3n2)c1 (stereo not drawn) [Example 19-4]
0.1 to 1 µM | > 20 µM | CNCC(O)COc1cccc(-c2nc(NC3CCOCC3)c3cnn(C4CC4)c3n2)c1 (stereo not drawn) [Example 19-5]
< 0.1 µM | > 20 µM | CNCC(O)COc1cccc(-c2cc(NC3CCOCC3)n3ncc(C(C)(C)C)c3n2)c1 (stereo not drawn) [Example 19-6]
0.1 to 1 µM | > 20 µM | CNCC(O)COc1cccc(-c2nc(NCc3cc(C)on3)c3cnn(C4CC4)c3n2)c1 (stereo not drawn) [Example 19-9]
< 0.1 µM | 10 to 20 µM | CNCC(O)COc1cc(OC)cc(-c2cc(NC3CCOCC3)c3c(C)nn(C(C)C)c3n2)c1 (stereo not drawn) [Example 20-4]
< 0.1 µM | > 20 µM | CNCC(O)COc1cccc(-c2nc(N3CCOCC3)c3cnn(C(C)(C)C)c3n2)c1 (stereo not drawn) [Example 20-5]
0.1 to 1 µM | > 20 µM | CCc1cc(OCC(O)CNC)cc(-c2cc(N3CCOCC3)n3ncc(C(C)C)c3n2)c1 (stereo not drawn) [Example 20-6]
0.1 to 1 µM | > 20 µM | CNCC(O)COc1cccc(-c2cc(N3CCOC3=O)n3ncc(C(C)C)c3n2)c1 (stereo not drawn) [Example 20-9]
< 0.1 µM | > 20 µM | CNCC(O)COc1cc(OC(C)C)cc(-c2cc(N3CCOCC3)c3cnn(C(C)C)c3n2)c1 (stereo not drawn) [Example 21-4]
0.1 to 1 µM | > 20 µM | CNCC(O)COc1cccc(-c2nc(NCc3ccncc3)c3cnn(C4CC4)c3n2)c1 (stereo not drawn) [Example 21-5]
< 0.1 µM | > 20 µM | CNCC(O)COc1cc(NC)cc(-c2cc(N3CCOCC3)n3ncc(C(C)C)c3n2)c1 (stereo not drawn) [Example 21-6]
0.1 to 1 µM | > 20 µM | CC(C)n1ncc2c(N3CCOCC3)cc(-c3cccc(SCC(O)CN)c3)nc21 (stereo not drawn) [Example 21-9]
< 0.1 µM | 5 to 10 µM | CNCC(O)COc1cc(Cl)cc(-c2cc(NC3CCOCC3)c3c(C)nn(C(C)C)c3n2)c1 (stereo not drawn) [Example 22-4]
0.1 to 1 µM | > 20 µM | CNCC(O)COc1cccc(-c2nc(NCc3ccccn3)c3cnn(C4CC4)c3n2)c1 (stereo not drawn) [Example 22-5]
< 0.1 µM | > 20 µM | CNCC(O)COc1cc(OC)cc(-c2cc(N3CCOCC3)n3ncc(C(C)C)c3n2)c1 (stereo not drawn) [Example 22-6]
< 0.1 µM | > 20 µM | CNCC(O)COc1cc(OC)cc(-c2cc(N[C@H]3CCOC3)n3ncc(C(C)C)c3n2)c1 (stereo partly drawn) [Example 23-6]
0.1 to 1 µM | > 20 µM | CNCC(O)COc1cc(CO)cc(-c2cc(NC3CCOCC3)c3cnn(C(C)C)c3n2)c1 (stereo not drawn) [Example 23-9]
0.1 to 1 µM | > 20 µM | CC(C)n1ncc2c(N3CCOCC3)cc(-c3cc(OCC(O)CN)cc(OC(F)(F)F)c3)nc21 (stereo not drawn) [Example 24-4]
< 0.1 µM | > 20 µM | Cc1cc(CNc2nc(-c3cccc(OCC(O)CN)c3)nc3c2cnn3C2CC2)n(C)n1 (stereo not drawn) [Example 24-5]
< 0.1 µM | > 20 µM | CNCC(O)COc1cc(OC)cc(-c2cc(N[C@@H]3CCOC3)n3ncc(C(C)C)c3n2)c1 (stereo partly drawn) [Example 24-6]
0.1 to 1 µM | > 20 µM | CC(C)n1ncc2c(NS(=O)(=O)N(C)C)cc(-c3cccc(OCC(O)CN)c3)nc21 (stereo not drawn) [Example 24-9]
